Test results from US11806342B2, “Diiodohydroxyquinoline for the treatment of clostridium difficile infection” (Purdue Research Foundation, priority 2019, dated 2023).
Converted amounts (≈) assume the structure as drawn. Where two headings read alike, the source gives them in different places.

Assays:
[1] = tested on: C. difficile clinical isolates; assay: Checkerboard assay, summary over 9 tested strains; type: cell-based, Clostridium difficile
Protocol: Interactions between diiodohydroxyquinoline and the anticlostridial drugs (metronidazole and vancomycin) against Clostridium difficile clinical isolates. […] The fractional inhibitory concentration index (ΣFIC) was calculated for each interaction. Interactions where the ΣFIC index was ≤0.5 were categorized as synergistic (SYN).

[2] = tested on: Bifidobacterium longum; assay: MIC against normal gut microflora; type: cell-based; settings: both strains
Protocol: (§1) In vitro antimicrobial evaluation of diiodohydroxyquinoline against normal microflora. The broth microdilution assay was utilized to determine the MICs of DIHQ and control antibiotics against commensal organisms that compose he human gut microflora, as described elsewhere. A bacterial solution equivalent to 0.5 McFarland standard was prepared and diluted in BHIS broth (for Bifidobacterium and Bacteroides) or in MRS broth (for Lactobacillus) to achieve a bacterial concentration of about 5×10^5 CFU/mL. Then, drugs were added and serially diluted along the plates.

[3] = tested on: species of Bacteroides and Bifidobacterium; assay: MIC against normal gut microflora; type: cell-based; settings: species of Bacteroides and Bifidobacterium tested; for DIHQ except B. longum, B. adolescentis, B. angulatum; read-out: MIC (growth inhibitory concentration)
Protocol: as §1

[4] = tested on: 2 clinical C. difficile strains; assay: Initial screening of antiparasitic drugs, both strains; type: cell-based, Clostridium difficile; settings: Clostridioides difficile, both tested C. difficile strains, read-out: MIC (growth inhibitory concentration)
Protocol: (§2) C. difficile strains were grown anaerobically on brain heart infusion supplemented (BHIS) agar plates at 37° C. for 48 hours. Afterwards, a bacterial solution equivalent to 0.5 McFarland standard was prepared and diluted in (BHIS) broth to achieve a bacterial concentration of about 5×10^5 CFU/mL. Drugs were added and serially diluted along the plates. Plates were then, incubated anaerobically at 37° C. for 48 hours. MICs reported in Table (1) are the minimum concentrations of the drugs that could completely suppress the visual growth of bacteria.

[5] = tested on: C. difficile ATCC BAA-1870; assay: Initial screening of antiparasitic drugs, broth microdilution MIC; type: cell-based, Clostridium difficile; settings: Clostridioides difficile
Protocol: as §2

[6] = tested on: C. difficile ATCC 43255; assay: Checkerboard assay, DIHQ with metronidazole or vancomycin; type: cell-based, Clostridium difficile; settings: for MIC: Clostridioides difficile
Protocol: (§3) The fractional inhibitory concentration index (ΣFIC) was calculated for each interaction. Interactions where the ΣFIC index was ≤0.5 were categorized as synergistic (SYN).

[7] = tested on: C. difficile ATCC BAA-1870; assay: as above; type: cell-based, Clostridium difficile; settings: for MIC: Clostridioides difficile
Protocol: as §3

[8] = tested on: C. difficile I9; assay: as above; type: cell-based, Clostridium difficile; settings: for MIC: Clostridioides difficile
Protocol: as §3

[9] = tested on: 38 tested C. difficile strains; assay: MIC and MBC over the panel of clinical isolates (MIC50, MIC90, range); type: cell-based, Clostridium difficile; settings: for MIC50 / MIC90: Clostridioides difficile; for MIC range: over the 38 tested C. difficile strains
Protocol: MIC50 and MIC90 are the minimum concentration of each agent that inhibited growth of 50% and 90% of the tested isolates, respectively. The minimum bactericidal concentration (MBC) of these drugs was tested by plating 5 μL from wells with no growth onto BHIS agar plates. The MBC was categorized as the lowest concentration that reduced bacterial growth by 99.9% MIC50 and MIC90 are the minimum concentration of each agent that inhibited the growth of 50% and 90% of the tested isolates, respectively. The minimum bactericidal concentration (MBC) of these drugs was tested by plating 5 μL from wells with no growth onto BHIS agar plates. The MBC was categorized as the lowest concentration that reduced bacterial growth by 99.9% [29-31].

[10] = tested on: Lactobacillus and Bacteroides strains; assay: MIC against normal gut microflora; type: cell-based; settings: Phocaeicola dorei; Lactobacillus and Bacteroides strains tested, with the exception of B. dorei HM-719; read-out: MIC (growth inhibitory concentration)
Protocol: as §1

[11] = tested on: Bifidobacterium strains; assay: MIC against normal gut microflora; type: cell-based; settings: Bifidobacterium strains tested
Protocol: as §1

[12] = DIHQ with metronidazole, C. difficile ATCC 43255
[13] = DIHQ with vancomycin, C. difficile ATCC 43255
[14] = DIHQ with metronidazole, C. difficile ATCC BAA-1870
[15] = DIHQ with vancomycin, C. difficile ATCC BAA-1870
[16] = DIHQ with metronidazole, C. difficile I9
[17] = DIHQ with vancomycin, C. difficile I9
[18] = concentration inhibiting growth of 50% of the tested isolates, read-out: MIC50
[19] = concentration inhibiting growth of 90% of the tested isolates, read-out: MIC90

Oc1c(I)cc(I)c2cccnc12 [DIHQ, 5,7-diiodoquinolin-8-ol]
tested strains with a synergistic relationship ([1]; DIHQ combined with metronidazole): 7 out of 9
tested strains with a synergistic interaction ([1]; DIHQ combined with vancomycin): 5 out of 9
MIC [2]: 64 to 128 µg/mL (≈ 161 to 322 µM)
MIC [3]: > 128 µg/mL
MIC [4]: 0.5 to 1 µg/mL (≈ 1.26 to 2.52 µM)
MIC ([5]; initial screening, C. difficile ATCC BAA 1870, read-out: MIC): 1 µg/mL (≈ 2.52 µM)
MIC of DIHQ combined with metronidazole ([6]; C. difficile ATCC 43255): 0.25 µg/mL
MIC of DIHQ combined with vancomycin ([6]; C. difficile ATCC 43255): 0.125 µg/mL
MIC alone ([6]; C. difficile ATCC 43255, Table 4): 1 µg/mL
MIC ([6]; ATCC43255, C. difficile ATCC 43255, Table 3, read-out: MIC alone): 1 µg/mL
Interpretation [6, 12]: SYN (ΣFIC index ≤0.5 is considered synergistic (SYN))
ΣFIC Index [6, 12]: 0.375
Interpretation [6, 13]: SYN (ΣFIC index ≤0.5 is considered synergistic (SYN))
ΣFIC Index [6, 13]: 0.25
MIC of DIHQ combined with metronidazole ([7]; C. difficile ATCC BAA-1870): 0.125 µg/mL
MIC of DIHQ combined with vancomycin ([7]; C. difficile ATCC BAA-1870): 0.06 µg/mL
MIC alone ([7]; C. difficile ATCC BAA-1870, Table 4): 1 µg/mL
MIC ([7]; ATCCBAA1870, C. difficile ATCC BAA-1870, Table 3, read-out: MIC alone): 1 µg/mL
Interpretation [7, 14]: SYN (ΣFIC index ≤0.5 is considered synergistic (SYN))
ΣFIC Index [7, 14]: 0.25
Interpretation [7, 15]: SYN (ΣFIC index ≤0.5 is considered synergistic (SYN))
ΣFIC Index [7, 15]: 0.185
MIC of DIHQ combined with metronidazole ([8]; C. difficile I9): 0.06 µg/mL
MIC of DIHQ combined with vancomycin ([8]; C. difficile I9): 0.06 µg/mL
MIC alone ([8]; C. difficile I9, Table 4): 0.06 µg/mL
MIC ([8]; C. difficile I9, Table 3, read-out: MIC alone): 0.06 µg/mL
Interpretation [8, 16]: ADD (ΣFIC index >0.5 − 1.25 is considered additive (ADD))
ΣFIC Index [8, 16]: 1.125
Interpretation [8, 17]: ADD (ΣFIC index >0.5 − 1.25 is considered additive (ADD))
ΣFIC Index [8, 17]: 1.125
MIC50 [9, 18]: 0.5 µg/mL (≈ 1.26 µM)
MIC90 [9, 19]: 2 µg/mL (≈ 5.04 µM)
MBC values relative to the corresponding MIC values ([9]; all isolates): equal to or two-fold higher
MIC range [9]: 0.06 to 2 µg/mL

CCc1c(Cl)c(O)c(Cl)c(O)c1C(=O)O[C@H]1[C@H](O)[C@H](OC)[C@H](OC/C2=C\C=C\C[C@H](O)/C(C)=C/[C@H](CC)[C@@H](O[C@@H]3OC(C)(C)[C@@H](OC(=O)C(C)C)[C@H](O)[C@@H]3O)/C(C)=C/C(C)=C/C[C@@H]([C@@H](C)O)OC2=O)O[C@@H]1C [Fidaxomicin, fidaxomicin]
MIC [10]: > 128 µg/mL
MIC50 [9, 18]: 0.015 µg/mL (≈ 0.0142 µM)
MIC90 [9, 19]: 0.06 µg/mL (≈ 0.0567 µM)

Cc1ncc([N+](=O)[O-])n1CCO [Metronidazole, metronidazole]
MIC [3]: ≤ 2 µg/mL
MIC of metronidazole combined with DIHQ ([6]; C. difficile ATCC 43255): 0.015 µg/mL
MIC of metronidazole combined with DIHQ ([7]; C. difficile ATCC BAA-1870): 0.015 µg/mL
MIC of metronidazole combined with DIHQ ([8]; C. difficile I9): 0.015 µg/mL
MIC90 [9, 19]: 0.25 µg/mL (≈ 1.46 µM)
MIC range [9]: 0.06 to 0.5 µg/mL

CN[C@H](CC(C)C)C(=O)N[C@H]1C(=O)N[C@@H](CC(N)=O)C(=O)N[C@H]2C(=O)N[C@H]3C(=O)N[C@H](C(=O)N[C@H](C(=O)O)c4cc(O)cc(O)c4-c4cc3ccc4O)[C@H](O)c3ccc(c(Cl)c3)Oc3cc2cc(c3O[C@@H]2O[C@H](CO)[C@@H](O)[C@H](O)[C@H]2O[C@H]2C[C@](C)(N)[C@H](O)[C@H](C)O2)Oc2ccc(cc2Cl)[C@H]1O [Vancomycin, vancomycin]
MIC [11]: ≤ 1 µg/mL
MIC [5]: 1 µg/mL (≈ 0.69 µM)
MIC of vancomycin combined with DIHQ ([6]; C. difficile ATCC 43255): 0.125 µg/mL
MIC ([6]; ATCC43255, read-out: MIC alone): 1 µg/mL
MIC of vancomycin combined with DIHQ ([7]; C. difficile ATCC BAA-1870): 0.125 µg/mL
MIC ([7]; ATCCBAA1870, read-out: MIC alone): 1 µg/mL
MIC of vancomycin combined with DIHQ ([8]; C. difficile I9): 0.125 µg/mL
MIC ([8]; I9, read-out: MIC alone): 1 µg/mL
MIC50 [9]: 0.5 µg/mL (≈ 0.345 µM)
MIC90 [9]: 1 µg/mL (≈ 0.69 µM)
